In patent US8242118B2, “Arylsulfonamide derivatives for use as CCR3 antagonists in the treatment of inflammatory and immunological disorders” (Axikin Pharmaceuticals Inc., priority 2001, dated 2012):
Counter-ions that a name gives are not always drawn.

These molecules were tested against T1, Human CCR3 (Homo sapiens, UniProt P51677) (assay: Calcium mobilization assay, eotaxin-stimulated). Conditions: human CCR3-transformed K562 cells, 10 nM eotaxin; compounds of about 40 to 90% purity; read-out: Activity grade Ca2+ (IC50 class).
T1 construct: The cloned CCR3 cDNA was constructed with pcDNA3 vector and transfected into a IC562 cell line; expressed in transfected cells
T1 sequence (P51677 1-355): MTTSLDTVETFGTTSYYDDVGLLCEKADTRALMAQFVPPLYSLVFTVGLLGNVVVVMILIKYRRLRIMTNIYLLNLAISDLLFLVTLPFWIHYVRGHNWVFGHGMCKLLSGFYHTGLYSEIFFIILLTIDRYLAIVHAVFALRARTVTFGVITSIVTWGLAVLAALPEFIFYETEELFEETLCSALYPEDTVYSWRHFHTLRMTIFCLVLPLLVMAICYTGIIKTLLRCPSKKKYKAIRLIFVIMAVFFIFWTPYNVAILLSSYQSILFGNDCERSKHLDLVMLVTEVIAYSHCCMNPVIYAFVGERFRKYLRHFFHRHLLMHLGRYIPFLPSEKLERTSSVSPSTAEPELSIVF
Format: cell-based
Summary of the method: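 Eotaxin (10 nM final) triggered calcium flux, monitored 60 s with Fluo-3AM, in butyrate-pretreated (5 mM, 20–24 h) CCR3-transfected K562 cells. Compounds preincubated 10 min; percent inhibition per concentration yielded IC50.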

| IC50 | Structure (SMILES) |
| --- | --- |
| < 1000 nM | Cc1cc(C)cc(Sc2ccc([N+](=O)[O-])cc2S(=O)(=O)N2CCNCC2)c1 [Example 2-1, 1-({2-[(3,5-dimethylphenyl)-sulfanyl]-5-nitrophenyl}sulfonyl)piperazine hydrochloride] |
| > 10000 nM | Cc1cc(C)cc(Oc2ccc(N)cc2S(=O)(=O)N2CCN(C(=O)OC(C)(C)C)CC2)c1 [Example 5-1, tert-butyl 4-{[5-amino-2-(3,5-dimethyl-phenoxy)phenyl]sulfonyl}-1-piperazinecarboxylate] |
| < 1000 nM | Cc1cc(C)cc(Oc2ccc(Cl)cc2S(=O)(=O)N2CCNCC2)c1 [Example 5-2, 1-{[5-chloro-2-(3,5-dimethylphenoxy)phenyl]sulfonyl}piperazine hydrochloride] |
| > 10000 nM | Cc1cc(C)cc(Oc2ccc(O)cc2S(=O)(=O)N2CCNCC2)c1 [Example 6-1, 4-(3,5-dimethylphenoxy)-3-(1-piperazinylsulfonyl)phenol hydrochloride] |
| 1000 to 10000 nM | COc1ccc(Oc2cc(C)cc(C)c2)c(S(=O)(=O)N2CCNCC2)c1 [Example 6-2, hydrochloride] |
| > 10000 nM | Cc1cc(C)cc(Oc2ccc(NC(=O)Cc3ccccc3)cc2S(=O)(=O)N2CCNCC2)c1 [Example 7-1, N-[4-(3,5-dimethylphenoxy)-3-(1-piperazinylsulfonyl)phenyl]-2-phenylacetamide] |
| < 1000 nM | Cc1cc(C)cc(Oc2ccc(Br)cc2S(=O)(=O)N2CCNCC2)c1 [Example 8-1, 1-{[5-bromo-2-(3,5-dimethylphenoxy)phenyl]sulfonyl}piperazine hydrochloride] |
| < 1000 nM | Cc1cc(C)cc(Oc2ccc(C#N)cc2S(=O)(=O)N2CCNCC2)c1 [Example 9-1, 4-(3,5-dimethylphenoxy)-3-(1-piperazinylsulfonyl)benzonitrile hydrochloride] |
| 1000 to 10000 nM | CN(C)C(=O)c1ccc(Oc2cc(Cl)cc(Cl)c2)c(S(=O)(=O)N2CCNCC2)c1 [Example 10-1, 4-(3,5-dichlorophenoxy)-N,N-dimethyl-3-(1-piperazinylsulfonyl)benzamide hydrochloride] |
| > 10000 nM | Cc1cc(C)cc(Oc2cc3cc[nH]c3cc2S(=O)(=O)N2CCNCC2)c1 [Example 11-1, 5-(3,5-dimethylphenoxy)-6-(1-piperazinylsulfonyl)-1H-indole trifluoroacetate] |
| < 1000 nM | N#Cc1ccc(Nc2cc(Cl)cc(Cl)c2)c(S(=O)(=O)N2CCNCC2)c1 [Example 20-1, 4-[(3,5-dichlorophenyl)amino]-3-(1-piperazinylsulfonyl)benzonitrile hydrochloride] |
| < 1000 nM | Cc1cc(C)cc(Oc2ccncc2S(=O)(=O)N2CCNCC2)c1 [Example 25-1, 1-{[4-(3,5-dimethylphenoxy)-3-pyridinyl]sulfonyl}piperazine hydrochloride] |
| < 1000 nM | CN(CCN1CCCCC1)S(=O)(=O)c1cc([N+](=O)[O-])ccc1Sc1cc(Cl)cc(Cl)c1 [Example 26-1, 2-[(3,5-dichlorophenyl)sulfanyl]-N-methyl-5-nitro-N-[2-(1-piperidinyl)ethyl]benzenesulfonamide] |
